Values of other authors, collected in patent US12655168B2, “Isolation of steviol glycosides” (DSM IP ASSETS B.V., priority 2019, dated 2026).

Columns and labels:
[1] = mildly hypertensive patients
[2] = Type II diabetics
[3] = relative to sucrose
[4] = new hemihydrate crystal form; obtained after heating and cooling a 0.06% reb B solution to room temperature

## C=C1C[C@@]23CC[C@H]4[C@@](C)(CCC[C@@]4(C)C(=O)O[C@@H]4O[C@H](CO)[C@@H](O)[C@H](O)[C@H]4O)[C@@H]2CC[C@]1(O[C@@H]1O[C@H](CO)[C@@H](O)[C@H](O)[C@H]1O[C@@H]1O[C@H](CO)[C@@H](O)[C@H](O)[C@H]1O)C3 [Stevioside]
[1]
  effect on blood pressure: reduce blood pressure
[2]
  effect on blood glucose levels: reduce blood glucose levels

## C=C1C[C@@]23CC[C@H]4[C@@](C)(CCC[C@@]4(C)C(=O)O[C@@H]4O[C@H](CO)[C@@H](O)[C@H](O)[C@H]4O[C@@H]4O[C@H](CO)[C@@H](O)[C@H](O)[C@H]4O)[C@@H]2CC[C@]1(O[C@@H]1O[C@H](CO)[C@@H](O)[C@H](O[C@@H]2O[C@H](CO)[C@@H](O)[C@H](O)[C@H]2O)[C@H]1O[C@@H]1O[C@H](CO)[C@@H](O)[C@H](O)[C@H]1O)C3 [rebaudioside D]
[3]
  times sweeter than sucrose: about 200 times

## rebaudioside B
[4]
  solubility in water: 50 ppm
